Reference: PubChem BioAssay (NCI)
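Method: 48-hour compound exposure of cells in 96-well plates, five concentrations, linear interpolation of endpoints. TGI: concentration producing complete growth inhibition.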

Assays:
Test in all cases: NCI-60 cell line screen, 48 h
[1] = tested on: NCI-H23 lung
[2] = tested on: MCF7 breast
[3] = tested on: EKVX NSCLC
[4] = tested on: MOLT-4 leukemia
[5] = tested on: MALME-3M melanoma
[6] = tested on: SNB-19 CNS
[7] = tested on: HOP-92 NSCLC
[8] = tested on: A498 renal
[9] = tested on: NCI-H460 lung
[10] = tested on: DU-145 prostate
[11] = tested on: M14 melanoma
[12] = tested on: K-562 leukemia
[13] = tested on: HT29 colon
[14] = tested on: SK-MEL-2 melanoma
[15] = tested on: RXF 393 renal
[16] = tested on: SN12C renal
[17] = tested on: A549 NSCLC
[18] = tested on: MDA-MB-435
[19] = tested on: HCC-2998 colon
[20] = tested on: NCI-H226 lung
[21] = tested on: MDA-MB-231 breast
[22] = tested on: CCRF-CEM leukemia
[23] = tested on: SK-MEL-5 melanoma
[24] = tested on: UACC-257 melanoma
[25] = tested on: HCT-15 colon
[26] = tested on: HCT-116 colon
[27] = tested on: HL-60(TB) leukemia
[28] = tested on: BT-549 breast
[29] = tested on: KM12 colon
[30] = tested on: SF-539 CNS
[31] = tested on: OVCAR-5 ovarian
[32] = tested on: ACHN renal
[33] = tested on: 786-0 renal
[34] = tested on: SF-268 CNS
[35] = tested on: OVCAR-8 ovarian
[36] = tested on: SR leukemia
[37] = tested on: LOX IMVI melanoma
[38] = tested on: RPMI-8226 leukemia
[39] = tested on: NCI/ADR-RES ovarian
[40] = tested on: U251 CNS
[41] = tested on: UO-31 renal
[42] = tested on: SK-OV-3 ovarian
[43] = tested on: OVCAR-3 ovarian
[44] = tested on: T-47D breast
[45] = tested on: SK-MEL-28 melanoma
[46] = tested on: HS 578T breast
[47] = tested on: NCI-H522 lung
[48] = tested on: PC-3 prostate
[49] = tested on: IGROV1 ovarian
[50] = tested on: TK-10 renal
[51] = tested on: MDA-N
[52] = tested on: UACC-62 melanoma
[53] = tested on: SW-620 colon
[54] = tested on: HOP-62 NSCLC
[55] = tested on: SF-295 CNS
[56] = tested on: OVCAR-4 ovarian
[57] = tested on: COLO 205 colon
[58] = tested on: CAKI-1 renal
[59] = tested on: SNB-75 CNS

C[C@H](CCC(=O)NN)[C@H]1CC[C@H]2[C@@H]3CC[C@@H]4C[C@H](O)CC[C@]4(C)[C@H]3CC[C@]12C
TGI [1]: > 100 µM
TGI [2]: 97.1 µM
TGI [3]: > 100 µM
TGI [4]: > 52.7 µM
TGI [5]: > 100 µM
TGI [6]: > 100 µM
TGI [7]: > 100 µM
TGI [8]: > 100 µM
TGI [9]: > 100 µM
TGI [10]: > 88.8 µM
TGI [11]: 72.4 µM
TGI [12]: 41.1 µM
TGI [13]: > 100 µM
TGI [14]: > 100 µM
TGI [15]: 67.2 µM
TGI [16]: > 100 µM
TGI [17]: > 100 µM
TGI [18]: > 100 µM
TGI [19]: > 90.6 µM
TGI [20]: > 100 µM
TGI [21]: > 100 µM
TGI [22]: > 72.1 µM
TGI [23]: 56.4 µM
TGI [24]: > 100 µM
TGI [25]: > 100 µM
TGI [26]: > 100 µM
TGI [27]: 37.6 µM
TGI [28]: > 100 µM
TGI [29]: > 100 µM
TGI [30]: > 100 µM
TGI [31]: > 100 µM
TGI [32]: > 100 µM
TGI [33]: > 100 µM
TGI [34]: > 100 µM
TGI [35]: > 100 µM
TGI [36]: 62.2 µM
TGI [37]: > 100 µM
TGI [38]: 59.9 µM
TGI [39]: > 100 µM
TGI [40]: > 100 µM
TGI [41]: > 100 µM
TGI [42]: > 100 µM
TGI [43]: > 100 µM
TGI [44]: > 100 µM
TGI [45]: > 100 µM
TGI [46]: > 100 µM
TGI [47]: > 70.1 µM
TGI [48]: > 100 µM
TGI [49]: > 100 µM
TGI [50]: > 93.8 µM
TGI [51]: > 100 µM
TGI [52]: > 100 µM
TGI [53]: > 100 µM
TGI [54]: > 100 µM
TGI [55]: > 100 µM
TGI [56]: > 100 µM
TGI [57]: > 96 µM
TGI [58]: > 100 µM

COC(=O)NC(Nc1ccc(Cl)cc1Cl)(C(F)(F)F)C(F)(F)F
TGI [1]: > 100 µM
TGI [2]: > 100 µM
TGI [3]: > 100 µM
TGI [4]: > 100 µM
TGI [5]: > 100 µM
TGI [6]: > 100 µM
TGI [7]: > 100 µM
TGI [8]: > 100 µM
TGI [9]: > 100 µM
TGI [10]: > 100 µM
TGI [11]: > 100 µM
TGI [12]: > 100 µM
TGI [13]: > 100 µM
TGI [14]: > 100 µM
TGI [15]: > 100 µM
TGI [16]: > 100 µM
TGI [17]: > 100 µM
TGI [18]: > 100 µM
TGI [19]: > 100 µM
TGI [20]: > 100 µM
TGI [21]: > 100 µM
TGI [22]: > 100 µM
TGI [23]: > 100 µM
TGI [24]: > 100 µM
TGI [25]: > 100 µM
TGI [59]: > 100 µM
TGI [26]: > 100 µM
TGI [27]: > 100 µM
TGI [28]: > 100 µM
TGI [29]: > 100 µM
TGI [30]: > 100 µM
TGI [31]: > 100 µM
TGI [32]: > 100 µM
TGI [33]: > 100 µM
TGI [34]: > 100 µM
TGI [35]: > 100 µM
TGI [36]: > 100 µM
TGI [37]: > 100 µM
TGI [38]: > 100 µM
TGI [39]: > 100 µM
TGI [40]: > 100 µM
TGI [41]: 94.7 µM
TGI [42]: > 100 µM
TGI [43]: > 100 µM
TGI [44]: > 100 µM
TGI [45]: > 100 µM
TGI [46]: > 100 µM
TGI [47]: > 100 µM
TGI [48]: > 100 µM
TGI [49]: > 100 µM
TGI [50]: > 100 µM
TGI [51]: > 100 µM
TGI [52]: > 100 µM
TGI [53]: > 100 µM
TGI [54]: > 100 µM
TGI [55]: > 100 µM
TGI [57]: > 100 µM
TGI [58]: > 100 µM

CNC(=O)CCC(NC(=O)OC(C)(C)C)C(=O)NC(Cc1ccc(NC(=O)CCCCC(C)=O)cc1)C(=O)NCC(=O)NC (configuration not stated)
TGI [1]: > 100 µM
TGI [2]: > 100 µM
TGI [3]: > 100 µM
TGI [4]: > 100 µM
TGI [5]: > 100 µM
TGI [6]: > 100 µM
TGI [7]: > 100 µM
TGI [8]: > 100 µM
TGI [9]: > 100 µM
TGI [10]: > 100 µM
TGI [11]: > 100 µM
TGI [12]: > 100 µM
TGI [13]: > 100 µM
TGI [15]: > 100 µM
TGI [16]: > 100 µM
TGI [17]: > 100 µM
TGI [18]: > 100 µM
TGI [19]: > 100 µM
TGI [20]: > 100 µM
TGI [21]: > 100 µM
TGI [23]: > 100 µM
TGI [25]: > 100 µM
TGI [59]: > 100 µM
TGI [26]: > 100 µM
TGI [27]: > 100 µM
TGI [28]: > 100 µM
TGI [29]: > 100 µM
TGI [30]: > 100 µM
TGI [31]: > 100 µM
TGI [32]: > 100 µM
TGI [33]: > 100 µM
TGI [34]: > 100 µM
TGI [35]: > 100 µM
TGI [36]: > 100 µM
TGI [37]: > 100 µM
TGI [38]: > 100 µM
TGI [39]: > 100 µM
TGI [40]: > 100 µM
TGI [41]: > 100 µM
TGI [42]: > 100 µM
TGI [43]: > 100 µM
TGI [44]: > 100 µM
TGI [45]: > 100 µM
TGI [46]: > 100 µM
TGI [47]: > 100 µM
TGI [48]: > 100 µM
TGI [49]: > 100 µM
TGI [50]: > 100 µM
TGI [51]: > 100 µM
TGI [52]: > 100 µM
TGI [53]: > 100 µM
TGI [54]: > 100 µM
TGI [55]: > 100 µM
TGI [56]: > 100 µM
TGI [57]: > 100 µM
TGI [58]: > 100 µM
